Measurements taken from US20240270740A1, “INHIBITORS OF CYCLIC GMP-AMP SYNTHASE AND USES THEREOF” (Ventus Therapeutics U.S., Inc., priority 2022, published 2024).

Target: hcGAS (Homo sapiens, UniProt Q8N884)
Experiment: hcGAS LCMS assay (direct measurement of cGAMP production)
Assay type: biochemical
Details: 0.5 nM hcGAS, 100 μM ATP, 100 μM GTP, 25 nM dsDNA, 4 h incubation
Protocol: cGAS catalyzes the cyclization of ATP and GTP to produce cGAMP, which is the activating ligand of STING. Human cGAS (hcGAS) inhibition can thus be quantified by measuring how much cGAMP is formed either indirectly, by monitoring ATP-depletion as in the hcGAS Kinase-Glo assay (as described below), or directly, such as using the hcGAS LCMS assay (as described below).
Compounds were tested for their h-cGAS inhibition activity using direct measurement of cGAMP production by LC/MS. Briefly, compounds were incubated with enzyme and substrates for 4 hours (see Table C), before the reaction was stopped with 3 volumes of 70/30 Acetonitrile/H2O mix containing 0.15 mM cGAMP-^13C10^5N5 as internal standard and mixed for […]. After centrifugation (3700 rpm, 10 min, 10° Celsius), […] of each reaction was collected and mixed to equal volume of Acetonitrile. Samples were then analyzed on Qexective (Column: XBridge BEH Amide Column, 130 Å, 3.5 μm, 3 mm×50 mm, Mobile phase A: 10 mM Ammonium acetate in 95/5% H2O/Acetonitrile (0.5% DMSO), Mobile phase B: Acetonitrile (0.5% DMSO).
The results of the assay, expressed as IC50 values, are reported in Table D with the following designations: A represents an IC50 value<0.005 μM; B represents an IC50 value≥0.005 μM and <0.02 μM, C represents an IC50 value≥0.02 μM and <0.06 μM; D represents an IC50 value≥0.06 and <0.2 μM; E represents an IC50 value≥0.2.

hcGAS, sequence (Q8N884 whole entry): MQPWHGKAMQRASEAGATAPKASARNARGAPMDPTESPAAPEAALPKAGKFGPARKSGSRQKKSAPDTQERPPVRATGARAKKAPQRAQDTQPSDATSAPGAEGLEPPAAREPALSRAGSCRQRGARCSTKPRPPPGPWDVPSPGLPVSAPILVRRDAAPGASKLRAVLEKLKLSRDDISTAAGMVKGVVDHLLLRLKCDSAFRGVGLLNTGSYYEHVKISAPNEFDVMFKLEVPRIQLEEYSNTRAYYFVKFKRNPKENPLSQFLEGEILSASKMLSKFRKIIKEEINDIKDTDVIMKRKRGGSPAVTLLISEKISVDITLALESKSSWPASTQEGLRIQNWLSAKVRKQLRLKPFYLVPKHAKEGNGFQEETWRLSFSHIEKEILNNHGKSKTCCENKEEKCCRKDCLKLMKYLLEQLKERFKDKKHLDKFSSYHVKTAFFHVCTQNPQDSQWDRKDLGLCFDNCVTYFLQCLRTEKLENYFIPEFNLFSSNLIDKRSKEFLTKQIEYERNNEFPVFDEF

Row | IC50 [nM] | Compound
1 | ≥ 200 | 4-(((1S,2R)-2-(hydroxymethyl)cyclopentyl)amino)-3-methoxy-N-(5-(5-methyl-1H-pyrazol-1-yl)-1,3,4-thiadiazol-2-yl)-2-oxo-2H-pyran-6-carboxamide [Rac-55]
2 | < 5 | COc1c(N[C@@H]2CCCCC[C@@H]2O)cc(C(=O)Nc2nnc(-n3nccc3C)s2)oc1=O (racemic) [Rac-26, 4-(((cis)-2-hydroxycycloheptyl)amino)-3-methoxy-N-(5-(5-methyl-1H-pyrazol-1-yl)-1,3,4-thiadiazol-2-yl)-2-oxo-2H-pyran-6-carboxamide]
3 | ≥ 200 | COc1c(N[C@@H]2c3ccccc3C[C@@H]2O)cc(C(=O)Nc2nnc(-n3nccc3C)s2)oc1=O (racemic) [Rac-28, 4-(((cis)-2-hydroxy-2,3-dihydro-1H-inden-1-yl)amino)-3-methoxy-N-(5-(5-methyl-1H-pyrazol-1-yl)-1,3,4-thiadiazol-2-yl)-2-oxo-2H-pyran-6-carboxamide]
4 | 5 to 20 | COc1c(NC2CCC23COC3)cc(C(=O)Nc2nnc(-n3nccc3C)s2)oc1=O (racemic) [Rac-56, 4-((2-oxaspiro[3.3]heptan-5-yl)amino)-3-methoxy-N-(5-(5-methyl-1H-pyrazol-1-yl)-1,3,4-thiadiazol-2-yl)-2-oxo-2H-pyran-6-carboxamide]
5 | ≥ 200 | COc1c(N[C@@H]2Cc3ccccc3[C@@H]2O)cc(C(=O)Nc2nnc(-n3nccc3C)s2)oc1=O (racemic) [Rac-81, 4-(((1S,2R)-1-hydroxy-2,3-dihydro-1H-inden-2-yl)amino)-3-methoxy-N-(5-(5-methyl-1H-pyrazol-1-yl)-1,3,4-thiadiazol-2-yl)-2-oxo-2H-pyran-6-carboxamide]
6 | 5 to 20 | COc1c(N(C)[C@@H]2CCC[C@@H]2OC)cc(C(=O)Nc2nnc(-n3nccc3C)s2)oc1=O (racemic) [Rac-153, 3-methoxy-4-(((cis)-2-methoxycyclopentyl)(methyl)amino)-N-(5-(5-methyl-1H-pyrazol-1-yl)-1,3,4-thiadiazol-2-yl)-2-oxo-2H-pyran-6-carboxamide]
7 | 5 to 20 | COc1c(N(C)[C@@H]2CCC[C@@H]2O)cc(C(=O)Nc2nnc(-n3nccc3C)s2)oc1=O (racemic) [Rac-159, 4-(((cis)-2-hydroxycyclopentyl)(methyl)amino)-3-methoxy-N-(5-(5-methyl-1H-pyrazol-1-yl)-1,3,4-thiadiazol-2-yl)-2-oxo-2H-pyran-6-carboxamide]
8 | 5 to 20 | COc1c(N[C@@H]2c3ccccc3C[C@@H]2OC)cc(C(=O)Nc2nnc(-n3nccc3C)s2)oc1=O (racemic) [Rac-164, 3-methoxy-4-(((1R,2S)-2-methoxy-2,3-dihydro-1H-inden-1-yl)amino)-N-(5-(5-methyl-1H-pyrazol-1-yl)-1,3,4-thiadiazol-2-yl)-2-oxo-2H-pyran-6-carboxamide]
9 | < 5 | COc1c(NC2CCCC2(C)O)cc(C(=O)Nc2nnc(-n3nccc3C)s2)oc1=O (racemic) [Rac-167, 4-((2-hydroxy-2-methylcyclopentyl)amino)-3-methoxy-N-(5-(5-methyl-1H-pyrazol-1-yl)-1,3,4-thiadiazol-2-yl)-2-oxo-2H-pyran-6-carboxamide]
10 | 5 to 20 | COC[C@H]1CC[C@H](COC)N1c1cc(C(=O)Nc2nnc(-n3nccc3C)s2)oc(=O)c1OC (racemic) [Rac-209, 4-((trans)-2,5-bis(methoxymethyl)pyrrolidin-1-yl)-3-methoxy-N-(5-(5-methyl-1H-pyrazol-1-yl)-1,3,4-thiadiazol-2-yl)-2-oxo-2H-pyran-6-carboxamide]
11 | < 5 | COc1c(N[C@@H]2CCC[C@H]2OC)cc(C(=O)Nc2nnc(-n3nccc3C)s2)oc1=O (single isomer, unassigned) [3*]
12 | 5 to 20 | COc1c(N[C@H]2CCC[C@@H]2OC)cc(C(=O)Nc2nnc(-n3nccc3C)s2)oc1=O (single isomer, unassigned) [4*]
13 | < 5 | COc1c(N[C@H]2CCC[C@H]2OC)cc(C(=O)Nc2nnc(-c3c(Cl)ccn3C)s2)oc1=O (single isomer, unassigned) [47*]
14 | 5 to 20 | COc1c(N[C@@H]2CCC[C@@H]2OC)cc(C(=O)Nc2nnc(-c3c(Cl)ccn3C)s2)oc1=O (single isomer, unassigned) [48*]
15 | 5 to 20 | COc1c(N[C@H]2CCN(C)C2=O)cc(C(=O)Nc2nnc(-n3nccc3C)s2)oc1=O (single isomer, unassigned) [71*]
16 | 5 to 20 | COc1c(N[C@@H]2CCN(C)C2=O)cc(C(=O)Nc2nnc(-n3nccc3C)s2)oc1=O (single isomer, unassigned) [72*]
17 | 5 to 20 | COc1c(N[C@@H]2CC[C@@H]2OC)cc(C(=O)Nc2nnc(-n3nccc3C)s2)oc1=O (single isomer, unassigned) [122*]
18 | 5 to 20 | COc1c(N[C@H]2CC[C@H]2OC)cc(C(=O)Nc2nnc(-n3nccc3C)s2)oc1=O (single isomer, unassigned) [123*]
19 | 5 to 20 | COc1c(N[C@H]2CC[C@@H](OC)C2)cc(C(=O)Nc2nnc(-n3nccc3C)s2)oc1=O (single isomer, unassigned) [124*]
20 | 5 to 20 | COc1c(N[C@@H]2CC[C@H](OC)C2)cc(C(=O)Nc2nnc(-n3nccc3C)s2)oc1=O (single isomer, unassigned) [125*]
21 | 5 to 20 | COc1c(N[C@H]2CC[C@H]2OCC(F)F)cc(C(=O)Nc2nnc(-n3nccc3C)s2)oc1=O (single isomer, unassigned) [172*]

Row | IC50 [nM] | Compound
22 | 20 to 60 | COc1c(N[C@@H]2CC[C@@H]2OCC(F)F)cc(C(=O)Nc2nnc(-n3nccc3C)s2)oc1=O (single isomer, unassigned) [173*]
23 | 20 to 60 | CC[C@H](COC)Nc1cc(C(=O)Nc2nnc(-n3nccc3C)s2)oc(=O)c1OC (single isomer, unassigned) [191*]
24 | 5 to 20 | CC[C@@H](COC)Nc1cc(C(=O)Nc2nnc(-n3nccc3C)s2)oc(=O)c1OC (single isomer, unassigned) [192*]
25 | 20 to 60 | COC[C@H](Nc1cc(C(=O)Nc2nnc(-n3nccc3C)s2)oc(=O)c1OC)c1ccccc1OC (single isomer, unassigned) [198*]
26 | < 5 | COC[C@@H](Nc1cc(C(=O)Nc2nnc(-n3nccc3C)s2)oc(=O)c1OC)c1ccccc1OC (single isomer, unassigned) [199*]
27 | 5 to 20 | COc1c(N[C@H]2CCC[C@H]2OC)cc(C(=O)Nc2nnc(-n3nccc3C)s2)oc1=O (single isomer, unassigned) [214*]
28 | 5 to 20 | COc1c(N[C@@H]2CCC[C@@H]2OC)cc(C(=O)Nc2nnc(-n3nccc3C)s2)oc1=O (single isomer, unassigned) [215*]
29 | 5 to 20 | COC[C@H](Nc1cc(C(=O)Nc2nnc(-n3nccc3C)s2)oc(=O)c1OC)C1CC1 (single isomer, unassigned) [Compound 21*]
30 | < 5 | COC[C@@H](Nc1cc(C(=O)Nc2nnc(-n3nccc3C)s2)oc(=O)c1OC)C1CC1 (single isomer, unassigned) [Compound 22*]
31 | < 5 | COc1c(N[C@H]2CC[C@H]2O)cc(C(=O)Nc2nnc(-c3c(Cl)ccn3C)s2)oc1=O (single isomer, unassigned) [Compound 53]
32 | < 5 | COc1c(N[C@@H]2CC[C@@H]2O)cc(C(=O)Nc2nnc(-c3c(Cl)ccn3C)s2)oc1=O (single isomer, unassigned) [Compound 54]
33 | < 5 | COc1c(N[C@@H]2CCC[C@@H]2C#N)cc(C(=O)Nc2nnc(-n3nccc3C)s2)oc1=O (single isomer, unassigned) [Compound 73]
34 | < 5 | COc1c(N[C@H]2CCC[C@H]2C#N)cc(C(=O)Nc2nnc(-n3nccc3C)s2)oc1=O (single isomer, unassigned) [Compound 74]
35 | 60 to 200 | COC[C@@H]1CCC[C@@H]1Nc1cc(C(=O)Nc2nnc(-n3nccc3C)s2)oc(=O)c1OC (single isomer, unassigned) [Compound 79*]
36 | ≥ 200 | COC[C@H]1CCC[C@H]1Nc1cc(C(=O)Nc2nnc(-n3nccc3C)s2)oc(=O)c1OC (single isomer, unassigned) [Compound 80*]
37 | 5 to 20 | COC[C@@]1(Nc2cc(C(=O)Nc3nnc(-n4nccc4C)s3)oc(=O)c2OC)CCOC1 (single isomer, unassigned) [Compound 100*]
38 | 5 to 20 | COC[C@]1(Nc2cc(C(=O)Nc3nnc(-n4nccc4C)s3)oc(=O)c2OC)CCOC1 (single isomer, unassigned) [Compound 101*]
39 | 5 to 20 | COc1c(N[C@@H]2CC[C@@H]2OC)cc(C(=O)Nc2nnc(-c3c(Cl)ccn3C)s2)oc1=O (single isomer, unassigned) [Compound 132*]
40 | 5 to 20 | COc1c(N[C@H]2CC[C@H]2OC)cc(C(=O)Nc2nnc(-c3c(Cl)ccn3C)s2)oc1=O (single isomer, unassigned) [Compound 133*]
41 | ≥ 200 | COCCN(CCO)c1cc(C(=O)Nc2nnc(-n3nccc3C)s2)oc(=O)c1OC (single isomer, unassigned) [Compound 157, 4-((2-hydroxyethyl)(2-methoxyethyl)amino)-3-methoxy-N-(5-(5-methyl-1H-pyrazol-1-yl)-1,3,4-thiadiazol-2-yl)-2-oxo-2H-pyran-6-carboxamide]
